Laboratory results: PubChem BioAssay AID1648 (Sanford-Burnham Center for Chemical Genomics, 2009)
The source made the active and inactive calls. The rule behind the calls is not given here.

What follows are molecules tested against Serine/threonine-protein kinase mTOR (Homo sapiens) (UniProt P42345) (assay: mTOR FRB domain ligand binding – biophysical, NMR (AID 1648)). Conditions: NMR binding to FRB domain, chemical shift.
Sequence of Serine/threonine-protein kinase mTOR (Homo sapiens) (P42345 2015-2114): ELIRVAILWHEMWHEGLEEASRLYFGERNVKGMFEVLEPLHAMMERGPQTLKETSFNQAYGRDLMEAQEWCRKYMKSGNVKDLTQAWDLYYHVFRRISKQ

Row | SMILES | Kd
1 | NCc1ccc2c(c1)CCO2 | > 4 mM (inactive)
2 | COc1cc(C)nc(N(CCO)CCO)n1 | > 4 mM (inactive)
3 | CC(=O)Nc1ccc(Nc2nnc(C)c(=O)[nH]2)cc1 | > 4 mM (inactive)
4 | CC(C)CCCC1(C)C=Cc2c(O)c3c(c(CCC(C)C)c2O1)OC12C(CC4CC1C(C)(C)OC2(CCC(C)C(=O)O)C4O)C3=O (stereo not given) | > 4 mM (inactive)
5 | CC(=O)Nc1cccc(-c2n[nH]c(=S)n2C)c1 | > 4 mM (inactive)
6 | O=C(O)c1ccc(CN2CCOCC2)cc1 | > 4 mM (inactive)
7 | C1CCN2C[C@@H]3C[C@H](CN4CCCC[C@@H]34)[C@H]2C1 | > 4 mM (inactive)
8 | NC(=O)CSc1nnnn1-c1ccccc1 | > 4 mM (inactive)
9 | C/C=C/C=N/NC(=O)c1ccc(=O)n(C)c1 | > 4 mM (inactive)
10 | O=C(O)c1cn(-c2ccccc2)nc1-c1ccncc1 | > 4 mM (inactive)
11 | CN1CCCC1C(=O)O (stereo not given) | > 4 mM (inactive)
12 | COc1ccc(-c2cc(=O)c3c(O)c(OC)c(O[C@H]4O[C@H](CO[C@@H]5O[C@@H](C)[C@H](O)[C@@H](O)[C@H]5O)[C@@H](O)[C@H](O)[C@H]4O)cc3o2)cc1 | > 4 mM (inactive)
13 | O=S(=O)(CCN1CCCC1)c1ccccc1 | > 4 mM (inactive)
14 | CC(C)=CCc1c(O)cc(C)oc1=O | > 4 mM (inactive)
15 | COc1cccc(-c2nn(-c3ccccc3)cc2CO)c1 | > 4 mM (inactive)
16 | O=C(CC1CCCCC1)N1CCN(c2ccccn2)CC1 | > 4 mM (inactive)
17 | CN1CCCn2c1nc1c2c(=O)[nH]c(=O)n1C | > 4 mM (inactive)
18 | CCOC(=O)c1csc(C2COc3ccccc3O2)n1 (stereo not given) | > 4 mM (inactive)
19 | O=[N+]([O-])c1cccc(CN2CCC(O)CC2)c1 | > 4 mM (inactive)
20 | O=C(O)C1NCCc2ccccc21 (stereo not given) | > 4 mM (inactive)
21 | c1cc2n(c1)CCNC2c1ccncc1 (stereo not given) | > 4 mM (inactive)
22 | O=C(OCc1c(Cl)cccc1Cl)c1cnccn1 | > 4 mM (inactive)
23 | OCc1ccc(-c2cccs2)s1 | > 4 mM (inactive)

Row | SMILES | Kd
24 | O=C1C2C3CCC(O3)C2C(=O)N1c1cccc(F)c1 (stereo not given) | > 4 mM (inactive)
25 | COc1ccc(-c2noc(-c3ccco3)n2)cc1OC | > 4 mM (inactive)
26 | Cc1nnsc1C(=O)O | > 4 mM (inactive)
27 | COc1c2ccoc2c(OC)c2oc(=O)ccc12 | > 4 mM (inactive)
28 | CCc1c(C)n([O-])c2c([n+]1=O)CCC2 | > 4 mM (inactive)
29 | Cc1ccc(NC(=O)C2CCN(S(C)(=O)=O)CC2)cc1 | > 4 mM (inactive)
30 | CCC(CO)NC(=O)c1snnc1C (stereo not given) | > 4 mM (inactive)
31 | CC(=O)Nc1cc(C(N)=O)cc(C(N)=O)c1 | > 4 mM (inactive)
32 | O=C(NCc1cccs1)c1ccc2c(c1)OCCO2 | > 4 mM (inactive)
33 | C=Cc1c(C)c2cc3[nH]c(cc4nc(cc5nc(cc1[nH]2)C(C)=C5CCC(=O)O)C(CCC(=O)O)=C4C)c(C)c3C=C | > 4 mM (inactive)
34 | CC(=O)Oc1c(C)c(C)c2c(c1C)CCC(C)(CCCC(C)CCCC(C)CCCC(C)C)O2 (stereo not given) | > 4 mM (inactive)
35 | CC(C)NC(=O)c1nc2ccccc2s1 | > 4 mM (inactive)
36 | O=C(O)C1CC(=O)N(C2Cc3ccccc3C2)C1 (stereo not given) | > 4 mM (inactive)
37 | NC(=S)NC1CCS(=O)(=O)C1 (stereo not given) | > 4 mM (inactive)
38 | NC(=O)c1ccsc1N | > 4 mM (inactive)
39 | O=C1CC[C@]23/C=C/C(=O)NCCCCNCCCNC(=O)/C=C/c4ccc(c2c4)O[C@@H]3C1 | > 4 mM (inactive)
40 | Cn1c(=O)cc(O)c2ccccc21 | > 4 mM (inactive)
41 | O=C(Nc1cccc(Cl)c1)c1ccncc1 | > 4 mM (inactive)
42 | CC(=O)Nc1sc(C)c(C)c1C(N)=O | > 4 mM (inactive)
43 | CN(C)C(=S)Nc1ccc([N+](=O)[O-])cc1 | > 4 mM (inactive)
44 | CC(=O)Nc1ccc(C(=O)n2nc(C)cc2C)cc1 | > 4 mM (inactive)
45 | COc1ccc2c(c1O)-c1c(OC)c(OC)cc3c1[C@H](C2)N(C)CC3 | > 4 mM (inactive)
46 | Cc1nnc2ccc(N3CCCC3)nn12 | > 4 mM (inactive)

Row | SMILES | Kd
47 | O=S(=O)(Cc1ccccc1Cl)Nc1ccccn1 | > 4 mM (inactive)
48 | COC(=O)C1CCN(c2ccc(Cl)nn2)CC1 | > 4 mM (inactive)
49 | NC(=O)CSc1ccc(Br)cc1 | > 4 mM (inactive)
50 | Cc1nc(-c2cccc(N)c2)cs1 | > 4 mM (inactive)
51 | O=C(O)c1cc2ccccc2o1 | > 4 mM (inactive)
52 | COc1cc(OC)c2c(OC)c(-c3ccc4c(c3)OCO4)c(=O)oc2c1 | > 4 mM (inactive)
53 | CCOC(=O)C1CCNCC1 | > 4 mM (inactive)
54 | CCSc1n[nH]c(=O)[nH]c1=O | > 4 mM (inactive)
55 | CCN1C[C@@]2(COC)C3[C@@H](OC)[C@H]4[C@@H]1[C@]3(C(OC)C[C@H]2O)C1C[C@@]2(O)[C@H](OC(=O)c3ccccc3)C1[C@]4(OC(C)=O)[C@@H](O)[C@@H]2OC (stereo not given in full) | > 4 mM (inactive)
56 | NC(=O)/C=C/C(=O)Nc1ccccc1 | > 4 mM (inactive)
57 | O=CN1CCN(C2CC(=O)N(c3ccccc3)C2=O)CC1 (stereo not given) | > 4 mM (inactive)
58 | Nc1ccc(OCc2ccccc2)cc1 | > 4 mM (inactive)
59 | O=C(Nc1cnccn1)c1cccnc1 | > 4 mM (inactive)
60 | O=c1[nH]cc(NCc2ccco2)c(=O)[nH]1 | > 4 mM (inactive)
61 | O=C(Cc1c(F)cccc1Cl)Nc1ccon1 | > 4 mM (inactive)
62 | C[C@H]1C(=O)CCC2[C@]3(C)CC[C@@]4(C)C5CC(C)(C)CC[C@]5(C)CC[C@]4(C)C3CC[C@@]21C (stereo not given in full) | > 4 mM (inactive)
63 | O=c1c(-c2cc(O)c(O)c(O)c2)coc2cc(O)c(O)c(O)c12 | > 4 mM (inactive)
64 | Cn1c(=O)c2[nH]cnc2n(C)c1=O | > 4 mM (inactive)
65 | CC1=NN2C(=N)/C(=C\c3cccs3)C(=O)N=C2S1 | > 4 mM (inactive)
66 | COc1ccc(C(=O)NNC(=S)NC(C)=O)cc1 | > 4 mM (inactive)
67 | CC(C)=CCC1=C(O)c2ccccc2C(=O)C1=O | > 4 mM (inactive)
68 | COC(=O)c1cccc(Cn2nnc3ccccc3c2=O)c1 | > 4 mM (inactive)
69 | CC(=O)NC(=S)Nc1nc2ccccc2n1C(C)=O | > 4 mM (inactive)

Row | SMILES | Kd
70 | NCc1ccc(-c2ccccn2)s1 | > 4 mM (inactive)
71 | Nc1ccc(-n2cccn2)cc1 | > 4 mM (inactive)
72 | Cc1ccccc1NC(=S)NCCO | > 4 mM (inactive)
73 | C=C[C@H]1CN2CC[C@H]1C[C@@H]2[C@H](O)c1ccnc2ccccc12 | > 4 mM (inactive)
74 | O=C(O)CCC1=C2c3ccccc3CCN2C(=O)CC1 | > 4 mM (inactive)
75 | Fc1cc2nccnc2cc1N1CCSCC1 | > 4 mM (inactive)
76 | Cc1cc(O)c2c(c1)C(=O)c1cccc(O)c1C2=O | > 4 mM (inactive)
77 | CCOc1nc(C)ccc1-c1noc(-c2ccco2)n1 | > 4 mM (inactive)
78 | Cc1cc(F)c(F)c(C(=O)NC2CC2)c1Cl | > 4 mM (inactive)
79 | CCOC(=O)c1c(C)cc(O)c(C=O)c1O | > 4 mM (inactive)
80 | O=C(O)c1coc2c1C(=O)CCC2 | > 4 mM (inactive)
81 | CC1(C)C(=O)[C@@H]2O[C@@H]2[C@@]2(C)C1C[C@@H](O)[C@]1(C)C2CC[C@@]2(C)[C@H](c3ccoc3)OC(=O)C3OC321 (stereo not given in full) | > 4 mM (inactive)
82 | N#Cc1cnn2c(C(F)(F)F)cc(C(F)(F)F)nc12 | > 4 mM (inactive)
83 | C=C1C2CC[C@@]3(C)[C@H](c4ccoc4)OC(=O)C[C@]13O[C@H]1CC(=O)C(C)(C)[C@H](C(OC(C)=O)C(=O)OC)[C@@]21C (stereo not given in full) | > 4 mM (inactive)
84 | C[C@H]1C(=O)O[C@@H]2CCN3CC=C(COC(=O)[C@](C)(O)[C@]1(C)O)[C@H]23 | > 4 mM (inactive)
85 | NC(=O)C12CC3CC(C1)C(=O)C(C3)C2 | > 4 mM (inactive)
86 | Cc1cc(NC(=O)c2cccc(S(C)(=O)=O)c2)no1 | > 4 mM (inactive)
87 | Cc1ccc(CN2CCN(C(=O)C3CCC3)CC2)cc1 | > 4 mM (inactive)
88 | COc1ccccc1/C=C/CN1CCOCC1 | > 4 mM (inactive)
89 | O=C(O)c1ccc(-n2cncn2)cc1 | > 4 mM (inactive)
90 | O=C(O)C1CN2CCC1CC2 (stereo not given) | > 4 mM (inactive)
91 | CC(=O)NCc1nc2ccccc2[nH]1 | > 4 mM (inactive)
92 | COC(=O)C(O)[C@@H]1C2(C)C(=O)[C@@H](CC3=C4CC(=O)O[C@@H](c5ccoc5)[C@]4(C)CCC32)[C@H](OC(C)=O)C1(C)C (stereo not given in full) | > 4 mM (inactive)

Row | SMILES | Kd
93 | O=c1[nH]cc(N=Cc2ccc(F)cc2)c(=O)[nH]1 | > 4 mM (inactive)
94 | Cn1nc(C(=O)N2CCCC2)c2ccccc2c1=O | > 4 mM (inactive)
95 | CC(NC(=O)C1CCCCC1)C(=O)NC1=NCCS1 (stereo not given) | > 4 mM (inactive)
96 | CC(=O)c1ccc(CC2SC(N)=NC2=O)cc1 (stereo not given) | > 4 mM (inactive)
97 | Nc1nc2ccc(N3CCOCC3)cc2s1 | > 4 mM (inactive)
98 | O=C(NC1CSCC1O)c1ccccc1 (stereo not given) | > 4 mM (inactive)
99 | CC(C)CCCC(C)[C@H]1CCC2C3CC[C@@H]4C[C@H](O)CC[C@]4(C)C3CC[C@@]21C (stereo not given in full) | > 4 mM (inactive)
100 | Cc1nnc(SCC(=O)NC2CCCC2)[nH]c1=O | > 4 mM (inactive)
101 | Cn1c(=O)n(C)c2cc(C(N)=O)ccc21 | > 4 mM (inactive)
102 | COc1ccc(C[C@H]2NC[C@H](O)[C@H]2OC(C)=O)cc1 | > 4 mM (inactive)
103 | COc1ccc(C)cc1S(=O)(=O)N1CCCCC1 | > 4 mM (inactive)
104 | Cc1occc1C(=O)NCc1ccncc1 | > 4 mM (inactive)
105 | COc1ccc(C2=CC(=O)C=CC2=O)cc1 | > 4 mM (inactive)
106 | COc1ccc(C(N)=O)cc1NC(C)=O | > 4 mM (inactive)
107 | O=S1(=O)C=CC(Nc2ccccc2)C1 (stereo not given) | > 4 mM (inactive)
108 | O=C(Cc1cccs1)Nc1nncs1 | > 4 mM (inactive)
109 | Nc1cc(C(=O)N2CCCC2)cc(C(=O)N2CCCC2)c1 | > 4 mM (inactive)
110 | CCSc1nc2ccccc2[nH]1 | > 4 mM (inactive)
111 | CC12CN3CC(C)(CN(C1)C3c1cccs1)C2O (stereo not given) | > 4 mM (inactive)
112 | CC1(C)CN=C(Nc2nc3ccccc3s2)S1 | > 4 mM (inactive)
113 | COC(=O)c1ccc(N2CCCC2)nc1 | > 4 mM (inactive)
114 | Cc1ccc(/C=N/n2c(C)nnc2C)cc1 | > 4 mM (inactive)
115 | O=C1C2C3C=CC(O3)C2C(=O)N1c1ccccc1 (stereo not given) | > 4 mM (inactive)
